Source: patent publication US20170275344A1, “POLYPEPTIDES AND USES THEREOF AS A DRUG FOR TREATMENT OF AUTOIMMUNE DISORDERS” (Compugen Ltd., priority 2014, published 2017)
Entries after “also recorded” stand apart in the source; their conditions may differ.

Experiments:
[1] = system: male DBA-1 mice; experiment: Established collagen-induced arthritis (CIA), therapeutic regimen; type: in vivo, mouse
Description: Bovine type II collagen (CII) (RUNMC in house production, batch 03-04-08) at a concentration of 2 mg/ml in acetic acid 0.05M was emulsified in equal volumes of Freund's complete adjuvant (2 mg/ml of Mycobacterium tuberculosis strain H37Ra; Difco, Detroit, Mich.).
On day 0, 10-12 week old male DBA-1 mice (Janvier Elevage, France) (n=95) were immunized i.d. at the base of the tail with 100 μg of bovine CII. On day 21, mice received an intraperitoneal booster injection of 50 μg of CII dissolved in phosphate buffered saline (PBS), and the onset of arthritis occurred a few days after this booster.
Joint inflammation in each paw was scored visually, using a scale of 0-2 per paw with a maximal score of 8 per animal: 0=non inflamed, 1=mild inflammation, 1.5=marked inflammation, and 2=severe inflammation. Scoring was performed three times a week.
Treatment was started in established CIA early after onset of disease (i.e. therapeutic regimen), when the macroscopic scores per animal were between 0.25 and 1.25 (on a scale of 0-8). The i.p. injections were given three times per week for two weeks, after which the study was terminated and mice were terminally bled to collect serum. Thereafter, the knee and ankle joints were collected and stored in formalin. Histology was scored for inflammation and destruction on an arbitrary scale of 0-3, for five different parameters: • Joint inflammation • Cartilage proteoglycan (PG) depletion • Chondrocyte death • Cartilage erosion • Bone erosion
1. Negative control: PBS 2. Negative control mIgG2A (Bioxcell, BE0085): 10 mg/kg 3. C1ORF32 ECD-Fc (SEQ ID NO:42): 10 mg/kg 4. C1ORF32 ECD-Fc (SEQ ID NO:42): 5 mg/kg 5. Positive control: Enbrel (Wyeth, F01421) 5 mg/kg
Joints were fixed for at least 4 days in 4% formaldehyde, decalcified in 5% formic acid, and subsequently dehydrated and embedded in paraffin. Standard frontal sections of 7 μm were mounted on SuperFrost slides (Menzel-Glaser, Braunschweig, Germany). Haematoxylin and eosin (H&E) staining was performed to study joint inflammation. The severity of inflammation in the joints was scored on a scale of 0-3 (0=no cells, 1=mild cellularity, 2=moderate cellularity, and 3=maximal cellularity). To study proteoglycan (PG) depletion from the cartilage matrix, sections were stained with safranin O (SO) followed by counterstaining with fast green. Depletion of PG was determined using an arbitrary scale of 0-3, ranging from normal, fully stained cartilage to destained cartilage, fully depleted of PGs. Chondrocyte death was scored on a scale of 0-3 ranging from no loss of chondrocyte nuclei to complete empty cartilage surface. The degree of cartilage surface erosion was scored on a scale of 0-3, ranging from no damage to complete loss of articular cartilage. Bone destruction was graded separately on a scale of 0-3, ranging from no damage to the complete loss of bone structure. Histopathological changes in the joint were scored on three semiserial sections of the joint spaced 70 μm apart. Scoring was performed in a blindfolded manner.
Statistical analysis: Disease course data was analyzed using one-way ANOVA with repeated measures, with a Bonferroni's post-test of selected pairs to determine statistical differences between C1ORF32 ECD-Fc (SEQ ID NO:42) and Enbrel treated mice, each as compared to Control Ig (IgG2a) treated group.

[2] = system: healthy human skin transplanted onto beige-SCID mice; experiment: Humanized psoriasis model: healthy human skin xenotransplants on beige-SCID mice injected with psoriatic patients' PBMCs; type: in vivo, mouse
Text: In this model, psoriasis is induced in xenotransplants of healthy human skin transplanted onto beige severe combined immunodeficiency (SCID) mice followed by intradermal (i.d.) injection of IL-2 enriched Peripheral Blood Mononuclear Cells (PBMCs) isolated from blood of psoriasis patients (Nickoloff, 1995; Wrone-Smith, 1996 Gilhar et al., 2002, 2006, 2011). The activity of these compounds was compared to that of Enbrel, a TNF inhibitor which is an approved biological drug for treatment of psoriasis. As a control for model robustness, we used dexamethasone, a steroid with suppressive effects on inflammatory cytokines and chemokines such as TNF-alpha and interferon-gamma which cause severe psoriasis. All treatments were administered intradermally, except for dexamethasone which was given topically.
Study Protocol: A) Healthy human skin pieces with a width of 0.4 mm and surface area of 1.5×1.5 cm were provided from residual skin of routine plastic surgery procedures from the Plastic Surgery Department of the Rambam Medical Center, Israel. In addition, 20 mL blood samples were taken from psoriatic patients. B) Seventy (70) beige-severe combined immunodeficient mice (SCID) (weight˜20-25 g) were included in this study. Normal healthy human donor skin was transplanted onto the beige-SCID mice as previously described (Nickoloff et al., 1995; Wrone-Smith, 1996; Gilhar et al., 2002, 2006, 2011; Kalish et al., 2009) and the mice were divided into 7 groups. C) Peripheral Blood Mononuclear Cells (PBMCs) isolated from psoriatic patients' blood were cultured in the presence of IL-2 [Prospec, 100 U/mL of RPMI 1640 media, 10% human AB serum (Sigma, St. Louis, Mo.), 1% glutamine, 1% antibiotics (media components; Biological Industries, Kibbutz Beit Haemeck, Israel)] for 14 days, as previously described (Gilhar et al, 2002). D) Four weeks following engraftment, each mouse was injected intra-dermally (i.d.) into the grafted skin lesion, with 1×10^7 activated allogeneic enriched PBMCs from psoriatic patients (FIG. 20). Cells from different psoriasis patients were equally distributed between treatment groups so that each patient is represented in each treatment group. E) On the day of PBMCs injection into the skin grafts, mice were divided randomly into treatment groups (n=9-10 mice per group) and administration of all drugs started (FIG. 20). All tested compounds including the vehicle were given intradermally (intralesional), three times a week, except for dexamethasone which was given topically for 14 consecutive days (Table 3).
F) Twenty eight days after starting the injections and treatment, skin was harvested (FIG. 20). Grafts were analyzed for the following psoriatic parameters by histology: epidermal thickening (acanthosis), suprapapillary epidermal thinning (papillomatosis), hyperkeratosis, parakeratosis, orthokeratosis, agranulosis-hypogranulosis, appearance of neutrophils in the upper spinous layer or in the corneal cell layer—Munro microabscess, regular elongation of rete ridges, angiogenesis, edema and dilated tortuous blood vessels in the dermal papilla and mononuclear cell infiltrate in the papillary dermis. Epidermal thickness was measured as detailed below, and HLA-DR, ICAM-1, Ki-67 and immune infiltrates (anti-CD3 stain) were evaluated by immunohistochemistry (IHC).
The entire skin graft was excised and placed in 10% formal saline overnight. Then, the specimens were place in 70% ethanol and were embedded according to the standard H&E protocol. Histological assessment of the skin grafts was performed by light microscopy and evaluated by two blinded observers [the second observer evaluated random slides (about 25% of all slides) to compare the data obtained by the first observer. […] Epidermal thickness was determined with an ocular micrometer at a minimum of 50 points along the epidermis selected to represent points of maximal and minimal thickness.
Representative grafts were allocated for IHC analysis. […]

[3] = system: psoriasis patients; conditions: cited from earlier work
[4] = 28 days after start of treatment

## Enbrel
[1]; 5 mg/kg, day 14
  bone erosions (histology): significant reduction of bone erosions
  other histological parameters of inflammation and cartilage damage: only a trend for protection
[1]; positive control, 5 mg/kg i.p. 3x/wk for 2 wks
  arthritis (macroscopic) scores: not as potent in reducing the arthritis scores as expected
[2]; [4]
  Healthy Skin (number of grafts): 3/9
  Psoriasiform Skin (number of affected grafts, histological evaluation): 6/9
  Total No. of Healthy Grafts (%): 33%
[2]; IHC, vs vehicle treated group
  proliferation index (% Ki-67 positive cells) in the xenografted skin: trend of decrease in proliferation index
[2]; Source of graft (Patient)
  Epidermal thickness of graft: 683 μm
[2]; Source of graft (Patient) B
  Epidermal thickness of graft: 658 μm
[2]; Source of graft (Patient) C
  Epidermal thickness of graft: 770 μm
[2]; Source of graft (Patient) D
  Epidermal thickness of graft: 679 μm
[2]; Source of graft (Patient) E
  Epidermal thickness of graft: 678 μm
[2]; Source of graft (Patient) G1
  Epidermal thickness of graft: 830 μm
[2]; Source of graft (Patient) H
  Epidermal thickness of graft: 496 μm
[2]; Source of graft (Patient) K
  Epidermal thickness of graft: 296 μm
[2]; Source of graft (Patient) P
  Epidermal thickness of graft: 492 μm
[2]; mean of 9-10 mice, PBS mean 682
  Epidermal thickness of grafts, Mean: 620 μm
[2]; one-tailed t-Test
  epidermal thickness compared with the vehicle-treated group: no substantial effect on epidermal thickness; also recorded: no significant reduction in epidermal thickness
[3]; at week 12
  patients achieving 75% improvement in the psoriasis area-and-severity index (PASI 75): Forty nine
[3]; clinical trials
  patients achieving PASI 90: 22%
